{
  "source": "patent US20260120816A1",
  "about": "“PREDICTION METHOD FOR PROTOPORPHYRINOGEN OXIDASE (PPO) INHIBITOR” (Pan Advanced Business Research, LLC, priority 2024, published 2026)",
  "origin": "cited, not measured here",
  "details": "control compound, Non Patent Literature 8",
  "data": [
    {"compound": "CC(=O)c1c(C)nn(C)c1O", "note": "[compound B, 1-(5-hydroxy-1,3-dimethyl-1H-pyrazol-4-yl)ethanone]", "values": [
      {"measurement": "herbicidal activity", "result": "no herbicidal activity at all"}
    ]}
  ]
}
